Activity calls are given as the source filed them.
Tests used:
Cytochrome P450 1A2 = target: T1, Cytochrome P450 1A2 (Homo sapiens, UniProt P05177);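 also: PubChem cytochrome P450 panel assay, CYP1A2 panel member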
T1 sequence (P05177 whole entry): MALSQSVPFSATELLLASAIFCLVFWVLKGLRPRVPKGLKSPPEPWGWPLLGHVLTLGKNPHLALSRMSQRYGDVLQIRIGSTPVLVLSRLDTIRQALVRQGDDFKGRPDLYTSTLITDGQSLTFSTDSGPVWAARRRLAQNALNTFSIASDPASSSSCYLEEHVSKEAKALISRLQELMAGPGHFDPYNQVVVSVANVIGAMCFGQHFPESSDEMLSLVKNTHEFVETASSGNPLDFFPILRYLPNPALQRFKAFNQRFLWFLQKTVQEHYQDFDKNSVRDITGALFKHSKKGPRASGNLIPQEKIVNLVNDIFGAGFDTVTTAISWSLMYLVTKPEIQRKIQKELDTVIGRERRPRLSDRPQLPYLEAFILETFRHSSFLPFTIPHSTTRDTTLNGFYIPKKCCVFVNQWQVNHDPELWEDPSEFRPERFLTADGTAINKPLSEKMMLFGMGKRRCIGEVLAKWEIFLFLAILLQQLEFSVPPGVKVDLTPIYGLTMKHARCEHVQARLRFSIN

[1] = target: T2, Heat shock factor protein 1 (Mus musculus, UniProt P38532); assay: inhibition of MG132-induced HSE-luciferase signal, confirmation, cell-based, NIH3T3, luminescence, dose retest (AID 2382); assay type: functional;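 also: NIH3T3 fibroblasts with HSF1-driven luciferase reporter stressed by proteasome inhibitor MG132; luminescence from HSF1-driven luciferase expression after 8 hours of MG132 stress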
T2 sequence (P38532 whole entry): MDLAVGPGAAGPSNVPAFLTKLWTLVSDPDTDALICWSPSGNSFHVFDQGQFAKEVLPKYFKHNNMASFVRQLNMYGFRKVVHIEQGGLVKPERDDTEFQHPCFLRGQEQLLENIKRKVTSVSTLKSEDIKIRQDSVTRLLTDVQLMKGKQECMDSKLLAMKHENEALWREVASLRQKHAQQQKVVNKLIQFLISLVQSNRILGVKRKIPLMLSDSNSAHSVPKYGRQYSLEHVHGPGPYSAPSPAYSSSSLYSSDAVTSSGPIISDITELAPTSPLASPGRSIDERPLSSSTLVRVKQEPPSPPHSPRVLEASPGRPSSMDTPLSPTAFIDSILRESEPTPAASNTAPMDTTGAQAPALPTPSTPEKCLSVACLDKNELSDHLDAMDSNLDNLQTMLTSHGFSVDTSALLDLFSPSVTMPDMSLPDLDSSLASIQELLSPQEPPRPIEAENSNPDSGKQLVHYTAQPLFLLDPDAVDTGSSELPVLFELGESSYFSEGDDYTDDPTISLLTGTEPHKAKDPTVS

Cytochrome P450 2C19 = Cytochrome P450 2C19 (Homo sapiens, UniProt P33261); assay: Cytochrome panel assay with activity outcomes. Panel member name: p450-cyp2c19 Compounds with AC50 equal or less than 10 uM are considered active; assay type: functional
Sequence of Cytochrome P450 2C19 (P33261 whole entry): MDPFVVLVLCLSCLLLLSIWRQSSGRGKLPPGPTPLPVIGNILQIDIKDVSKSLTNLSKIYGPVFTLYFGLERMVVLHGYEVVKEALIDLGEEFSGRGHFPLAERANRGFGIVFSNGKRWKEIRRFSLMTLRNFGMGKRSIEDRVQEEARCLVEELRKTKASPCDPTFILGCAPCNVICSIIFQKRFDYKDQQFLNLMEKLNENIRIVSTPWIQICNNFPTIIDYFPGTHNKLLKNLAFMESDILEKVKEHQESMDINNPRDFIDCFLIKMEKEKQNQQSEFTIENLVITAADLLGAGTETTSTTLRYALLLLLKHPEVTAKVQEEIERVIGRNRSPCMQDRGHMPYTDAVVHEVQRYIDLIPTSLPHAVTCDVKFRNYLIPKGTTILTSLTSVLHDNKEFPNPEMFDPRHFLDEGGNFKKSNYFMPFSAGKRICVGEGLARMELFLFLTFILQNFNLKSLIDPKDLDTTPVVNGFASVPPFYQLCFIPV

[2] = inhibitors of intracellular T. cruzi replication, confirmation, NIH3T3 host cells, beta-gal luminescence (AID 2044); assay type: functional, cell-based;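 also: intracellular parasites grown in NIH/3T3 mouse fibroblasts as host cells; luminescent beta-galactosidase reporter signal from transgenic T. cruzi replicating inside host cells; inhibitors lower the luminescence signal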
[3] = cytotoxicity toward NIH3T3 fibroblasts, dose response, counter-screen, cell-based, ATP luminescence, mouse fibroblasts (AID 2010); assay type: functional;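 also: cells exposed to compound for about 90 hours before reading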
[4] = HEp-2 cell cytotoxicity, dose response, cytotoxicity control for RSV inhibitor project, HTS (AID 2410); assay type: functional; details: human respiratory syncytial virus
[5] = test system: Streptococcus sp. 'group A'; assay: growth inhibition of control SK(-) GAS strain, dose response, counter-screen for streptokinase expression inhibitor project, luminescence, kanamycin, BacTiterGlo, confirmation (AID 1900); assay type: functional, organism-based
Streptococcus = assay: Group A Streptococcus viability loss, dose response, counter-screen for streptokinase expression inhibitor project, luminescence, BacTiterGlo (AID 1915); assay type: functional, organism-based;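 also: potency for reduction of bacterial viability or growth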

C/C(=N\OC(=O)c1ccc(F)cc1)c1nccs1
AC50 (Cytochrome P450 1A2): 28.2 µM (inconclusive)

O=C(CCCOc1ccccc1)Nc1nccs1
EC50 [1]: > 195 µM (not active)

Cc1ccc(C(=O)NNC(=O)C2CCCN(c3ncccn3)C2)cc1 (stereo not drawn)
AC50 (Cytochrome P450 2C19; read-out: AC50): 39.8 µM (inconclusive)

Cc1ccc(-c2ccc(CCC(=O)O)n2CC2CCCO2)cc1 (stereo not drawn)
AC50 (Cytochrome P450 2C19; read-out: AC50): 14.1 µM (inconclusive)

c1ccc(CCNc2nc(-c3ccncc3)cs2)cc1
EC50 [2]: 1.8 µM (active)
EC50 [3]: > 60 µM (not active)

COC(=O)CCC(=O)NNC(=O)c1cccc(Br)c1
EC50 [1]: > 195 µM (not active)

COc1ccc(C(=O)NC(=S)N2CCNC(=O)C2CC(=O)OC(C)C)cc1 (stereo not drawn)
EC50 [1]: > 195 µM (not active)

O=C(Nc1ccc2c(c1)OCO2)C1CCN(C(=O)CSc2ncnc3ccccc23)CC1
CC50 [4]: 41.4 µM (active)

COC(=O)C1(C)C=C2C(=C(C)C(=O)C2C)CN1 (stereo not drawn)
AC50 (Cytochrome P450 1A2): 31.6 µM (inconclusive)

Cc1cccc(-n2c(=O)c3c(n4cnnc24)-c2ccccc2CC32CCCCC2)c1
AC50 (Cytochrome P450 1A2): 22.4 µM (inconclusive)

Fc1ccccc1N1CCN(Cc2cc(-c3ccccc3)on2)CC1
EC50 [1]: > 195 µM (not active)

O=[N+]([O-])c1nn(-c2ccc3c(c2)OCCO3)[n+]([O-])c1NC1CCN(Cc2ccccc2)CC1
EC50 [2]: 0.163 µM (active)
EC50 [3]: > 60 µM (not active)

C#C[C@@]1(O)CC[C@@H]2[C@@H]3CCC4=CC(=O)CC[C@@]4(C)[C@H]3CC[C@]21C
AC50 (Cytochrome P450 2C19; read-out: AC50): 0.501 µM (inconclusive)

CCN(Cc1ccncc1)C(=O)c1cc(COc2ccc(C)c(C)c2)on1
EC50 [2]: 1.07 µM (active)
EC50 [3]: > 60 µM (not active)

Cc1ccc(SCCNC(=O)c2ccc(C)c(S(=O)(=O)Nc3ccccc3C)c2)cc1
AC50 (Cytochrome P450 1A2): 14.1 µM (inconclusive)

CCCCc1ccc(NC(S)=NCc2cccc(OC)c2)cc1
EC50 [2]: 3.51 µM (active)
EC50 [3]: > 60 µM (not active)

CNC(=O)/C(C#N)=C/c1ccc(-c2ccc(OC)cc2[N+](=O)[O-])o1
EC50 [1]: > 195 µM (not active)

COC(=O)c1ccc(OC)c(CN2CCCN(Cc3cc(C)ccc3C)S2(=O)=O)c1
EC50 [2]: 1.11 µM (active)
EC50 [3]: > 60 µM (not active)

CCCOc1ccc(N2C(=O)CC(SC(=N)N3N=C(c4ccccc4)CC3c3ccccc3)C2=O)cc1 (stereo not drawn)
EC50 [2]: 2.05 µM (active)
EC50 [3]: > 60 µM (not active)

Cn1cc(Cl)c(-c2nnc(S)n2-c2ccc(F)cc2)n1
EC50 [1]: > 195 µM (not active)

c1cc2c(cc1C1CCCN1)OCCCO2 (stereo not drawn)
EC50 [1]: > 195 µM (not active)

COc1cccc(-c2cc(NCc3cccs3)ncn2)c1
AC50 (Cytochrome P450 2C19; read-out: AC50): 25.1 µM (inconclusive)

Cc1ccc2oc(-c3cccc(NC(=S)NC(=O)/C=C/c4ccco4)c3)nc2c1
AC50 (Cytochrome P450 1A2): 3.55 µM (inconclusive)

CCC1CCc2sc(C(=O)NCC(c3ccc(OC)cc3)N3CCCC3)cc2C1 (stereo not drawn)
EC50 [2]: 1.83 µM (active)
EC50 [3]: > 60 µM (not active)

CCN(c1ccccc1)S(=O)(=O)c1ccc(Cl)c(NC(=O)CN2CCCCCC2)c1
EC50 [2]: 1.04 µM (active)
EC50 [3]: > 60 µM (not active)

Cc1cccn2cc(-c3cccc(S(=O)(=O)N4CC(C)OC(C)C4)c3)nc12 (stereo not drawn)
CC50 [4]: 44.6 µM (active)

O=c1c(-c2ccc(F)cc2)nc2cnc(Nc3ccccc3)nc2n1Cc1cccs1
AC50 (Cytochrome P450 1A2): 2 µM (inconclusive)

Cc1c(Cl)ccc2c(C(=O)Nc3cc(C(C)(C)C)on3)cc(-c3ccccn3)nc12
EC50 [2]: 1.95 µM (active)
EC50 [3]: > 60 µM (not active)

COc1cccc(Cn2c(=O)c(-c3ccc(F)cc3)nc3cnc(N4CCOCC4)nc32)c1
AC50 (Cytochrome P450 2C19): inconclusive

CC(C)Oc1ccc(C(=O)O)cc1
EC50 [1]: 69.4 µM (active)

Brc1ccc2ncnc(Nc3cccc4ccccc34)c2c1
AC50 (Cytochrome P450 2C19; read-out: AC50): 2.82 µM (inconclusive)

COc1cc(NC(=O)COC(=O)/C=C/c2c(C)nn(-c3ccc(F)cc3)c2Cl)cc(OC)c1
EC50 [2]: 0.691 µM (active)
EC50 [3]: > 60 µM (not active)

Fc1ccc(Cn2c(SCc3ccc(F)c(F)c3)nnc2C(F)(F)F)cc1
AC50 (Cytochrome P450 1A2): 17.8 µM (inconclusive)

O=C(NC(NC(=S)Nc1cc(Cl)ccc1Cl)C(Cl)(Cl)Cl)c1ccco1 (stereo not drawn)
AC50 (Cytochrome P450 1A2): 12.6 µM (inconclusive)

O=C(c1ccccc1)c1sc(N2CCCCCC2)nc1-c1ccccc1
CC50 [4]: 31.1 µM (active)

CCCCOc1ccccc1C1C(C(=O)OC)=C(C)N(C)C(C)=C1C(=O)OC
CC50 [4]: > 50 µM (active)

COc1ccc(NC(=S)N2CCN(C/C=C/c3ccccc3)CC2)cc1OC
AC50 (Cytochrome P450 2C19; read-out: AC50): 15.8 µM (inconclusive)
AC50 (Cytochrome P450 1A2): 28.2 µM (inconclusive)

Cc1c(C(=O)NC(=S)NCc2cccnc2)oc2ccccc12
EC50 [2]: 1.93 µM (active)
EC50 [3]: > 60 µM (inconclusive)

SC(COCc1ccccc1)CN1CCN(Cc2ccc3c(c2)OCO3)CC1 (stereo not drawn)
EC50 [2]: 2.1 µM (active)
EC50 [3]: > 60 µM (not active)

CCOC(=O)N1CCN(C(=O)c2ccc3c(c2)NC(=O)/C(=C/c2ccccc2)S3)CC1
EC50 [5]: 1.48 µM (active)
EC50 (Streptococcus): 4.42 µM (active)

O=C(O)c1cccnc1SCC(=O)N1CCCCCC1
AC50 (Cytochrome P450 2C19): inconclusive

CSc1nc2ccc(NS(=O)(=O)c3ccc([N+](=O)[O-])cc3)cc2s1
EC50 [1]: > 195 µM (not active)

COc1ccc(CN(Cc2cccnc2)S(=O)(=O)c2ccc(-n3cnnn3)c(C)c2)cc1OC
EC50 [2]: 2.19 µM (active)
EC50 [3]: > 30 µM (not active)

CCOC(=O)c1cnc2ccccc2c1Nc1ccc2c(c1)OCCO2
EC50 [1]: 6 µM (active)

O=C(c1cc(Cl)ccc1Cl)N1CCOCC1
EC50 [1]: > 195 µM (not active)

O=c1c(-c2ccccc2)nc2cncnc2n1C1CC1
AC50 (Cytochrome P450 2C19; read-out: AC50): 3.16 µM (inconclusive)

O=C(Nc1ccccc1)N1CCSc2cc(Cl)ccc21
AC50 (Cytochrome P450 1A2): 3.55 µM (inconclusive)

CCCC(C)n1nc(O)c2c1NC(=O)CSC2c1ccc(OC)c(OC)c1 (stereo not drawn)
EC50 [1]: > 195 µM (not active)

CN1CCC(OC(=O)c2ccccc2)CC1
EC50 [2]: 0.263 µM (active)
EC50 [3]: 58.6 µM (active)

COC(=O)c1ccc(/C=C/c2ccc3cccc(OC(C)=O)c3n2)cc1
EC50 [5]: 2.08 µM (active)
EC50 (Streptococcus): 8.49 µM (active)

CCOC(=O)N1CCN(c2cc(N)c([N+](=O)[O-])cc2F)CC1
CC50 [4]: > 50 µM (active)

Cc1ccc(S(=O)(=O)N(CC(=O)N2CCc3ccccc3C2)c2ccc(Cl)c(Cl)c2)cc1
EC50 [1]: > 195 µM (not active)

Cc1ccc(C(=O)C[n+]2cccc3cc(C)ccc32)cc1
EC50 [2]: 11.2 µM (active)
EC50 [3]: > 60 µM (inconclusive)

CC1CN(C(=O)COc2ncnc3ccccc23)CC(C)O1 (stereo not drawn)
AC50 (Cytochrome P450 2C19; read-out: AC50): 39.8 µM (inconclusive)

C[C@@H](C(=O)OC1C[C@H]2CC[C@@H](C1)N2C)c1ccc(Br)cc1 (stereo partly drawn)
AC50 (Cytochrome P450 1A2): 39.8 µM (inconclusive)

CSc1nc(-c2ccc(C)cc2)nc(N)c1C#N
CC50 [4]: 49.6 µM (active)

O=C(c1ccc(Cn2c(=S)[nH]c3ccc(N4CCOCC4)cc3c2=O)cc1)N1CCN(c2ccc(F)cc2)CC1
EC50 [2]: 0.583 µM (active)
EC50 [3]: > 60 µM (not active)

Cc1ccc(C(C(=O)NCc2ccco2)N(C(=O)CNC(=O)c2cccs2)c2ccc(C)cc2)cc1 (stereo not drawn)
AC50 (Cytochrome P450 2C19; read-out: AC50): 2.51 µM (inconclusive)

CCc1ccccc1NC(=O)NC1CC2CCC(C1)N2Cc1cccs1 (stereo not drawn)
AC50 (Cytochrome P450 2C19; read-out: AC50): 17.8 µM (inconclusive)

C/C(=N/NC(N)=S)c1ccc(Br)s1
EC50 [2]: 2.07 µM (active)
EC50 [3]: > 60 µM (not active)

CCN(CC)CCCNC(=O)c1oc2ccc(S(=O)(=O)N3CC(C)CC(C)C3)cc2c1C (stereo not drawn)
EC50 [2]: 0.422 µM (active)
EC50 [3]: > 30 µM (not active)

C/C(Cn1cnc([N+](=O)[O-])n1)=N\NC(=O)c1cccc(F)c1
EC50 [2]: 1.39 µM (active)
EC50 [3]: > 60 µM (not active)

Brc1ccc(-c2csc(N/N=C/c3cccnc3)n2)cc1
EC50 [2]: 1.44 µM (active)
EC50 [3]: > 60 µM (not active)

COc1cc(/C=N/NC(=O)c2cc(-c3cccc(Br)c3)nc3ccccc23)cc(OC)c1O
CC50 [4]: 36 µM (active)

CN/C(=N/CCSCc1nc[nH]c1C)NC#N [CIMETIDINE]
AC50 (Cytochrome P450 1A2): 50.1 µM (inconclusive)
